Results from US10144730B2, “Inhibitors of c-Jun-N-terminal kinase (JNK)” (Dana-Farber Cancer Institute, Inc., priority 2011, dated 2018).
“Also recorded” adds a separate entry of the source.

What was measured:
JNK2 = JNK2 (Homo sapiens, UniProt P45984); conditions: Table 2, *Literature values; cited from earlier work
c-Jun phosphorylation [1] = assay: LanthaScreen TR-FRET cell assay for c-Jun phosphorylation in HeLa cells; type: cell-based; conditions: for EC50: Hela cells, TNF-α stimulation, read-out: p-c-Jun EC50 (nM) Hela
Protocol: Phosphorylation was determined by measuring the time resolved FRET (TR-FRET) between a terbium labeled phospho-c-Jun specific antibody and GFP. The cells were plated in white tissue culture treated 384 well plates at a density of 10,000 cell per well in 32 μL assay medium (Opti-MEM®, supplemented with 0.5% charcoal/dextran-treated FBS, 100 U/ml penicillin and 100 μg/ml streptomycin, 0.1 mM nonessential amino acids, 1 mM sodium pyruvate, 25 mM Hepes, pH 7.3, and lacking phenol red). After overnight incubation, cells were pretreated for 90 minutes with compound (at indicated concentration) diluted in 4 μL assay buffer followed by 30 min of stimulation with 5 ng/ml of TNF-α in 4 μL assay buffer (final assay volume was 40 μl). The medium was then removed by aspiration, and the cells were lysed by adding 20 μl of lysis buffer (20 mM Tris-HCl, pH 7.6, 5 mM EDTA, 1% Nonidet P-40 substitute, 5 mM NaF, 150 mM NaCl, and 1:100 protease and phosphatase inhibitor mix, SIGMA P8340 and P2850, respectively). The lysis buffer included 2 nM of the terbium-labeled anti-c-Jun (pSer73) detection antibodies (Life Technologies). After allowing the assay to equilibrate for 60 minutes at room temperature, TR-FRET emission ratios were determined on a BMG Pherastar fluorescence plate reader (BMG Labtech, Cary, N.C.) using the following parameters: excitation at 340 nm; emission at 520 nm and 490 nm; 100 μs lag time; 200 μs integration time; and emission ratio=Em520/Em490. All data were analyzed and plotted using Graphpad Prism 4.
(§1) In parallel with biochemical evaluation, the ability of the compounds to inhibit JNK activity in cells was investigated using two independent assays formats. This is a critical issue because there are several reported JNK inhibitors with nanomolar biochemical potency that translate into micromolar cellular inhibitors. The most well characterized direct phosphorylation substrate of JNK is the transcription factor c-Jun.

JNK1 = JNK1 (Homo sapiens, UniProt P45983); conditions: Table 2, *Literature values; cited from earlier work
c-Jun phosphorylation [2] = assay: High throughput microscopy of c-Jun phosphorylation in A375 cells; type: cell-based; conditions: A375 cells, anisomycin stimulation, read-out: p-c-Jun EC50 (nM) A375
Protocol: Cells were fixed in 2% paraformaldehyde for 10 min at room temperature and washed with PBS-T (Phosphate Buffered Saline, 0.1% Tween 20). Cells were permeabilized in methanol for 10 min at room temperature, washed with PBS-T, and blocked in Odyssey Blocking Buffer (LI-COR Biosciences) for 1 hour at room temperature. Cells were incubated overnight at 4° C. with antibody specific for Erk1/2(pT202/pY204), Akt(pS473), c-Jun(pS73), pP38(T180/Y182) and pSTAT3(Y705) (Cell Signaling Technology), pRSK1(S380) and pMSK1(S376) (Epitomics), and NF-κB (Santa Cruz Biotechnology) diluted 1:400 in Odyssey Blocking Buffer. […] Cells were washed twice with PBS and imaged in an imageWoRx high-throughput microscope (Applied Precision). Data were plotted using DataPflex.
as §1

JNK = assay: Binding kinetics (pulse-chase) assay, ATP-biotin labeling of JNK in A375 cells; type: cell-based; conditions: 1 μM compound
Protocol: A375 cells were incubated with inhibitors for the indicated amount of time after which cell lysates were prepared and labeled with ATP-biotin. Biotinylated proteins were pulled down with streptavidin beads and material bound to the beads was eluted and separate by SDS-PAGE followed by Western blot analysis for JNK.
A375 cells (ATCC® CRL-1619™) were pre-treated with 1 μM compound for the indicated amounts of time. Remove the medium and wash 3 times with PBS. Resuspend the cell pellet with 1 mL Lysis Buffer (1% NP-40, 1% CHAPS, 25 mM Tris, 150 mM NaCl, Phosphatase Inhibitor Cocktail, Roche 04906845001, and Protease Inhibitor Cocktail Roche 11836170001). Rotate end-to-end for 30 min at 4° C. Lysates were cleared by centrifugation at 14000 rpm for 15 min in the Eppendorf. The cleared lysates gel filtered into Kinase Buffer (0.1% NP-40, 20 mM HEPES, 150 mM NaCl, Phosphatase Inhibitor Cocktail, and Protease Inhibitor Cocktail) using Bio-Rad 10DG colums. The total protein concentration of the gel-filtered lysate should be around 5-15 mg/ml. […]
In order to evaluate the kinetics with which JNK-IN-5 could covalently modify JNK in cells, a pulse-chase assay was developed . […] Streptavidin affinity chromatography is then used to isolate all biotinylated proteins and JNK protein is detected following SDS-PAGE and Western blotting (FIG. 8). […]

[3] = system: 260 kinases in A375 cells; assay: KiNativ cellular kinase selectivity profiling in A375 cells; type: cell-based; conditions: 1 μM, 3 hours
Protocol: FIG. 9 illustrates the cellular kinase selectivity as assessed using the KiNativ™ technology.
The kinase selectivity of several key compounds was first evaluated using a chemical proteomic approach named KiNativ which detects 260 kinases in A375 cells (ActivX Biosciences). To probe the intracellular targets of the compounds, A375 cells were incubated with the inhibitors and then looked for protection of labeling by an ATP-biotin probe that non-specifically labels conserved lysines on kinases and other nucleotide-dependent enzymes. This provided an important advantage relative to the in vitro kinase selectivity profiling because in vitro the short incubation times and presence of reactive thiols in the buffers can potentially cause false negatives for acrylamide-modified kinase inhibitors. […] Since cysteine-directed covalent kinase inhibitors will sometimes cross-react with kinases that contain an equivalently placed cysteine, a sequence alignment was performed to identify all kinases which have a cysteine near JNK1 Cys116 (FIG. 10). […] The dramatic selectivity improvement that results from introduction of this flag-methyl group has been previously reported for imatinib (Zimmermann et al., 1996).

JNK3 = JNK3 (Homo sapiens, UniProt P53779); assay: Biochemical JNK3 kinase inhibition (Z'-lyte format)
Chain of JNK3 (P53779 whole entry): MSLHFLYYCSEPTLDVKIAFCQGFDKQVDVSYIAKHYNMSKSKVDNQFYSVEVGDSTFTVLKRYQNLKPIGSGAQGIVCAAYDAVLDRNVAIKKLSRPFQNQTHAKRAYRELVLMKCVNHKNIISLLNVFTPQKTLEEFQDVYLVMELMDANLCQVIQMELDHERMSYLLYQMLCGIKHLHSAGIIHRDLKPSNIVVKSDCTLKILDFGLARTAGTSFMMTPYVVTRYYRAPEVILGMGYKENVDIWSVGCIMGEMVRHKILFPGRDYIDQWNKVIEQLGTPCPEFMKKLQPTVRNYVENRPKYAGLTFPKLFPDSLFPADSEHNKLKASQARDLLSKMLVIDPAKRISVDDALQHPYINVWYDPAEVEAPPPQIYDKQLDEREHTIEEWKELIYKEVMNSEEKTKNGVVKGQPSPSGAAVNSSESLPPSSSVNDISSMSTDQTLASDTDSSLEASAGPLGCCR

Chain of JNK2 (P45984 whole entry): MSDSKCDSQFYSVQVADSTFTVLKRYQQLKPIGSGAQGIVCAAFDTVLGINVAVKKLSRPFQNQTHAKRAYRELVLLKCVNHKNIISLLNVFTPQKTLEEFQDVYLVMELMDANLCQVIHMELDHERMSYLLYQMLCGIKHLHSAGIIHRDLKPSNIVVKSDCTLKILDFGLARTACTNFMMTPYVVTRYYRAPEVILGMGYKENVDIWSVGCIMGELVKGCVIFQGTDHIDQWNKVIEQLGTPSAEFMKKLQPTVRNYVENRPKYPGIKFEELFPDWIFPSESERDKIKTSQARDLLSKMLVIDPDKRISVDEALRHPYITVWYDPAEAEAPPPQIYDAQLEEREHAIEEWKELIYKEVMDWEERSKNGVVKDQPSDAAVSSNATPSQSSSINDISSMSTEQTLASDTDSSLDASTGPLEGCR
Chain of JNK1 (P45983 whole entry): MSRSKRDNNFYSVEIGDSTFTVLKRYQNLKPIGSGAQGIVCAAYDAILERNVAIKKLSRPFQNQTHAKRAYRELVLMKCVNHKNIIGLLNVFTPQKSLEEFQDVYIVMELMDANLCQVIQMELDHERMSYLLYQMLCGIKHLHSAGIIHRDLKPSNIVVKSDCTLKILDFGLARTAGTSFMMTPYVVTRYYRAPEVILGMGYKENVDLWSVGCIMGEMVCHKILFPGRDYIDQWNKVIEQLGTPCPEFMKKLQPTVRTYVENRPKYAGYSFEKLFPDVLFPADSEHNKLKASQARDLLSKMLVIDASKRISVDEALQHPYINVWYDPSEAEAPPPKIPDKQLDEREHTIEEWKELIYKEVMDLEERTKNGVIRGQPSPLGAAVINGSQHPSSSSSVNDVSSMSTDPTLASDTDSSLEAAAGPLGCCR

Row | Compound | IC50 (JNK2) | IC50's for c-Jun phosphorylation in both cellular assay formats (c-Jun phosphorylation [1]; HeLa and A375 formats, tested in parallel) | EC50 (c-Jun phosphorylation [1]) | IC50 (JNK1) | EC50 (c-Jun phosphorylation [2]) | protection of JNK from labeling by ATP-biotin (JNK) | KiNativ result for JNK after live cell treatment [3] | EC50 (c-Jun phosphorylation [1]; Homo sapiens) | cellular IC50 fold higher than covalent analog JNK-IN-5 (c-Jun phosphorylation [1]; cellular c-Jun phosphorylation, relative to JNK-IN-5) | IC50 (JNK3; Table 2) | fold less potent biochemical IC50 (JNK3; on JNK1, 2, and 3, relative to JNK-IN-5) | EC50 (c-Jun phosphorylation [2]; Homo sapiens, A-375)
1 | N#CC(c1ccnc(NCCc2cccnc2)n1)c1nc2ccccc2s1 (stereo not drawn) [AS601245, reference compound] | 220 nM | micromolar range | 2020 nM | 150 nM | 2400 nM |  |  |  |  |  |  | 
2 | CCC(=O)Nc1cccc(C(=O)Nc2ccc(Nc3nccc(-c4cccnc4)n3)cc2)c1 [JNK-IN-6] |  |  |  |  |  | incapable of protecting JNK from labeling by ATP-biotin; also recorded: no protection of JNK labeling | did not inhibit JNK activity | 6760 nM | 50 fold | 148 nM | ~100 fold | 1900 nM
